Test results taken from ChEMBL document CHEMBL3885881, “DrugMatrix”.

Species on record: Rattus norvegicus
Assay: DrugMatrix - Regimen: Daily Repeat
Assay type: toxicity, organism-based, Sprague-Dawley
Design: regimen Daily Repeat, gender Male, age 6-8 weeks
Conditions: in vivo, po, route oral GAVAGE, vehicle .5 % CMC; for ABSOLUTE BASOPHIL / ABSOLUTE EOSINOPHIL / ABSOLUTE LYMPHOCYTE / ABSOLUTE MONOCYTE / ABSOLUTE SEGMENTED NEUTROPHIL / BASOPHIL / EOSINOPHIL / ERYTHROCYTE COUNT / HEMATOCRIT / HEMOGLOBIN / LEUKOCYTE COUNT / LYMPHOCYTE / MEAN CORPUSCULAR HEMOGLOBIN CONCENTRATION / MEAN CORPUSCULAR VOLUME / MONOCYTE / NEUTROPHIL / NUCLEATED RED BLOOD CELLS / PLATELET COUNT: tissue Blood; for ALANINE AMINOTRANSFERASE / ALBUMIN / ALKALINE PHOSPHATASE / BLOOD UREA NITROGEN / CARBON DIOXIDE / CHLORIDE / CHOLESTEROL / CREATINE PHOSPHOKINASE / CREATININE / GLUCOSE / LACTATE DEHYDROGENASE / LIPASE / PHOSPHORUS / POTASSIUM / SODIUM / TOTAL BILIRUBIN / TOTAL PROTEIN: tissue Plasma
[1] = 0 mg/kg, 72 h, dose level Control, time 3 day
[2] = 0 mg/kg, 120 h, dose level Control, time 5 day
[3] = 60 mg/kg, 72 h, dose level High, time 3 day

In the case of `CO[C@H]1C[C@@H]2CC[C@@H](C)[C@@](O)(O2)C(=O)C(=O)N2CCCC[C@H]2C(=O)O[C@H]([C@H](C)C[C@@H]2CC[C@@H](O)[C@H](OC)C2)CC(=O)[C@H](C)/C=C(\C)[C@@H](O)[C@@H](OC)C(=O)[C@H](C)C[C@H](C)/C=C/C=C/C=C/1C` [SIROLIMUS], the “ABSOLUTE BASOPHIL” value [1] is reported as 0 CELLS/uL, the “ABSOLUTE EOSINOPHIL” value [1] is reported as 47.67 CELLS/uL and the “ABSOLUTE LYMPHOCYTE” value [1] is reported as 15937.67 CELLS/uL. For the same compound, the “ABSOLUTE MONOCYTE” value [1] was 138.33 CELLS/uL, the “ABSOLUTE SEGMENTED NEUTROPHIL” value [1] was 1443 CELLS/uL and the BASOPHIL [1] was 0%. For the same compound, the EOSINOPHIL [1] was 0.33%, the “ERYTHROCYTE COUNT” value [1] was 5.45 x10E6/uL and the HEMATOCRIT [1] was 34.43%. The HEMOGLOBIN [1] was 13.38 G/DL, the “LEUKOCYTE COUNT” value [1] was 17.57 x10E3/uL and the LYMPHOCYTE [1] was 90.33%. For the same compound, the “MEAN CORPUSCULAR HEMOGLOBIN CONCENTRATION” value [1] was 38.88 G/DL, the “MEAN CORPUSCULAR VOLUME” value [1] was 63.27 fL and the MONOCYTE [1] was 0.83%. For the same compound, the NEUTROPHIL [1] was 8.5%, the “NUCLEATED RED BLOOD CELLS” value [1] was 0 /100WBC and the “PLATELET COUNT” value [1] was 1298 x10E3/uL. The “ALANINE AMINOTRANSFERASE” value [1] was 47.67 u/L, the ALBUMIN [1] was 4.18 G/DL and the “ALKALINE PHOSPHATASE” value [1] was 398.5 u/L. The “BLOOD UREA NITROGEN” value [1] was 16 mg/dL, the “CARBON DIOXIDE” value [1] was 29.17 mmol/L and the CHLORIDE [1] was 98.17 MEQ/L. The CHOLESTEROL [1] was 68.83 mg/dL, the “CREATINE PHOSPHOKINASE” value [1] was 467.33 u/L and the CREATININE [1] was 0.14 mg/dL. For the same compound, the GLUCOSE [1] was 151.67 mg/dL, the “LACTATE DEHYDROGENASE” value [1] was 597.5 u/L and the LIPASE [1] was 9.33 u/L. For the same compound, the PHOSPHORUS [1] was 11.97 mg/dL, the POTASSIUM [1] was 6.43 MEQ/L and the SODIUM [1] was 140.68 MEQ/L. The “TOTAL BILIRUBIN” value [1] was 0.18 mg/dL, the “TOTAL PROTEIN” value [1] was 5.82 G/DL and the “ABSOLUTE BASOPHIL” value [2] was 0 CELLS/uL. The “ABSOLUTE EOSINOPHIL” value [2] was 31 CELLS/uL, the “ABSOLUTE LYMPHOCYTE” value [2] was 14327.83 CELLS/uL and the “ABSOLUTE MONOCYTE” value [2] was 102.83 CELLS/uL. For the same compound, the “ABSOLUTE SEGMENTED NEUTROPHIL” value [2] was 1321.67 CELLS/uL, the BASOPHIL [2] was 0% and the EOSINOPHIL [2] was 0.17%. For the same compound, the “ERYTHROCYTE COUNT” value [2] was 5.79 x10E6/uL, the HEMATOCRIT [2] was 36.1% and the “LEUKOCYTE COUNT” value [2] was 15.78 x10E3/uL. For the same compound, the LYMPHOCYTE [2] was 90.5%, the “MEAN CORPUSCULAR HEMOGLOBIN CONCENTRATION” value [2] was 39.22 G/DL and the “MEAN CORPUSCULAR VOLUME” value [2] was 62.4 fL. The MONOCYTE [2] was 0.67%, the NEUTROPHIL [2] was 8.67% and the “NUCLEATED RED BLOOD CELLS” value [2] was 0.17 /100WBC. For the same compound, the “PLATELET COUNT” value [2] was 1211.67 x10E3/uL, the “ALANINE AMINOTRANSFERASE” value [2] was 49 u/L and the ALBUMIN [2] was 4.27 G/DL. For the same compound, the “ALKALINE PHOSPHATASE” value [2] was 356.67 u/L, the “BLOOD UREA NITROGEN” value [2] was 20.5 mg/dL and the “CARBON DIOXIDE” value [2] was 29.17 mmol/L. For the same compound, the CHLORIDE [2] was 98 MEQ/L, the CHOLESTEROL [2] was 69.83 mg/dL and the “CREATINE PHOSPHOKINASE” value [2] was 312 u/L. For the same compound, the CREATININE [2] was 0.21 mg/dL, the GLUCOSE [2] was 149.83 mg/dL and the “LACTATE DEHYDROGENASE” value [2] was 322 u/L. For the same compound, the LIPASE [2] was 10 u/L, the PHOSPHORUS [2] was 12 mg/dL and the POTASSIUM [2] was 6.75 MEQ/L. For the same compound, the SODIUM [2] was 142.8 MEQ/L, the “TOTAL BILIRUBIN” value [2] was 0.17 mg/dL and the “TOTAL PROTEIN” value [2] was 6.1 G/DL. For the same compound, the “ABSOLUTE BASOPHIL” value [3] was 0 CELLS/uL, the “ABSOLUTE EOSINOPHIL” value [3] was 0 CELLS/uL and the “ABSOLUTE LYMPHOCYTE” value [3] was 11212.33 CELLS/uL. For the same compound, the “ABSOLUTE SEGMENTED NEUTROPHIL” value [3] was 775.67 CELLS/uL, the BASOPHIL [3] was 0% and the EOSINOPHIL [3] was 0%. For the same compound, the “ERYTHROCYTE COUNT” value [3] was 6.32 x10E6/uL, the HEMATOCRIT [3] was 39.93% and the HEMOGLOBIN [3] was 15.57 G/DL. The “LEUKOCYTE COUNT” value [3] was 12.23 x10E3/uL, the LYMPHOCYTE [3] was 91.67% and the “MEAN CORPUSCULAR HEMOGLOBIN CONCENTRATION” value [3] was 39 G/DL. For the same compound, the “MEAN CORPUSCULAR VOLUME” value [3] was 63.4 fL, the MONOCYTE [3] was 2% and the NEUTROPHIL [3] was 6.33%. The “NUCLEATED RED BLOOD CELLS” value [3] was 0 /100WBC, the “PLATELET COUNT” value [3] was 1112 x10E3/uL and the “ALANINE AMINOTRANSFERASE” value [3] was 51.33 u/L. The ALBUMIN [3] was 4.23 G/DL, the “ALKALINE PHOSPHATASE” value [3] was 271 u/L and the “BLOOD UREA NITROGEN” value [3] was 18.33 mg/dL. For the same compound, the “CARBON DIOXIDE” value [3] was 29.67 mmol/L, the CHLORIDE [3] was 97.67 MEQ/L and the CHOLESTEROL [3] was 84.33 mg/dL. The “CREATINE PHOSPHOKINASE” value [3] was 323.67 u/L, the CREATININE [3] was 0.19 mg/dL and the GLUCOSE [3] was 192 mg/dL. For the same compound, the “LACTATE DEHYDROGENASE” value [3] was 111.33 u/L, the LIPASE [3] was 10.33 u/L and the PHOSPHORUS [3] was 11.37 mg/dL. For the same compound, the POTASSIUM [3] was 5.46 MEQ/L, the SODIUM [3] was 143.47 MEQ/L and the “TOTAL BILIRUBIN” value [3] was 0.17 mg/dL. The “TOTAL PROTEIN” value [3] was 5.9 G/DL and the “ABSOLUTE BASOPHIL” value (60 mg/kg, 120 h, dose level High, time 5 day) was 0 CELLS/uL.
